Here are results for 31 molecules from patent US5194383A, “Process for making L-aminoacylase” (priority 1991, dated 1993).

Series [1] concerns L-amino acylase. The class given is biochemical, Alcaligenes denitrificans DA181. As to conditions: for influence of the ion on the enzyme: in words, 30 minutes at 37° C., buffer A. As for the experimental part: Various metal ions were incubated with an appropriate amount of enzyme for 30 min in 50 mM Tris-HCl pH 8.0. The remaining activity was determined by ninhydrin method.

In series [2] the test system is L-amino acylase. Briefly: Substrate specificity of L-amino acylase (ninhydrin method). The class given is biochemical, Alcaligenes denitrificans DA181. The settings on record: for Relative activity (%) L-amino acylase: 37° C., 50 mM Tris-HCl buffer pH 8.0. As for the experimental part:
This enzyme may hydrolyze N-acetyl-L-amino acids with a higher reactivity, but hydrolyze the N-acetyl-D-amino acids with a lower reactivity.
(§1) A comparison of the substrate specificity of L-amino acylase of this invention with D-amino acylase is summarized as shown in Table 3.
(§2) The enzyme activity was determined at 37° C. in 50 mM TrisCHl
(§3) buffer pH 8.0 by ninhydrin method.

In the next series the test system is D-amino acylase. Briefly: Substrate specificity of D-amino acylase (ninhydrin method). As to conditions: D-form of substrate; 37° C., 50 mM Tris-HCl buffer pH 8.0. Type of series: biochemical. As for the experimental part: as §1, §2, §3
The test system of series [3] is L-aminoacylase by Aspergillus. The settings on record: conventional Aspergillus enzyme; cited from earlier work.
Setting [4] is: metal ion 1 mM, 30 min, 50 mM Tris-HCl pH 8.0.
The mark [5] stands for this setting: metal ion 10^-1 mM, 30 min, 50 mM Tris-HCl pH 8.0, 100 µM.
The mark [6] stands for this setting: metal ion 10^-2 mM, 30 min, 50 mM Tris-HCl pH 8.0, 10 µM.
Where [7] appears, read: metal ion 10^-3 mM, 30 min, 50 mM Tris-HCl pH 8.0, 1 µM.

Where two headings read alike, the source gives them in different places.

`[Ba+2].[Cl-].[Cl-]` [BaCl2]: the “relative activity of L-amino acylase (%)” value in the series with L-amino acylase [1] (setting [4]) came out at 92%.
The same measure, in the same setting: the figure for `[Ca+2].[Cl-].[Cl-]` [CaCl2] is 94%.
`[Cl][Cd][Cl]` [CdCl2]: the “influence of the ion on the enzyme” value in the series with L-amino acylase [1] was “inhibited”. Besides, the “relative activity of L-amino acylase (%)” value in the series with L-amino acylase [1] (setting [4]) turned out to be 16%.
In the case of `[Cl-].[Cl-].[Co+2]` [CoCl2], the “relative activity of L-amino acylase (%)” value with L-amino acylase [1] (setting [4]) is on record as 120%.
Regarding `[Cl][Cu][Cl]` [CuCl2], the “influence of the ion on the enzyme” value in the series on L-amino acylase [1] is “inhibited”. Also, the “relative activity of L-amino acylase (%)” value in the series with L-amino acylase [1] (setting [4]) is 5%; with L-amino acylase [1] (setting [5]), 77%; with L-amino acylase [1] (setting [6]), 90%; in the series with L-amino acylase [1] (setting [7]), 94%.
In the case of `O=C(O)CN(CCN(CC(=O)O)CC(=O)O)CC(=O)O` [EDTA.2Na], the “relative activity of L-amino acylase (%)” value in the series on L-amino acylase [1] (50 mm tris-hcl, pH 8, 30 min, 1000 µM) is reported as 55%.
As to `[Cl][Fe][Cl]` [FeCl2], the “influence of the ion on the enzyme” value in the series with L-amino acylase [1] was “inhibited”. For the same molecule, the “relative activity of L-amino acylase (%)” value with L-amino acylase [1] (setting [4]) was determined as 15%.
As for `[Cl][Hg][Cl]` [HgCl2], the “influence of the ion on the enzyme” value in the series on L-amino acylase [1] is “inhibited”. Further, the “relative activity of L-amino acylase (%)” value stood at 0% in the series on L-amino acylase [1] (setting [7]) and 0% with L-amino acylase [1] (metal ion 10^-4 mM, 30 min, 50 mM Tris-HCl pH 8.0, 0.1 µM).
With `[Cl-].[Cl-].[Mg+2]` [MgCl2], the “relative activity of L-amino acylase (%)” value in the series on L-amino acylase [1] (setting [4]) worked out at 98%.
As to `[Cl][Mn][Cl]` [MnCl2], in the series on L-amino acylase [1] (setting [4]), the “relative activity of L-amino acylase (%)” value is given as 86%.
As to `CC(=O)N[C@@H](C)C(=O)O` [N-acetyl-alanine], the “Relative activity (%) L-amino acylase” value with L-amino acylase [2] (D-form of substrate) is 0%; in the series on L-amino acylase [2] (L-form of substrate) it was 78%. Also, the “Relative activity (%) D-amino acylase” value in the series with D-amino acylase came to 25%.
On to `CC[C@@H](C)[C@H](NC(C)=O)C(=O)O` [N-acetyl-alloisoleucine], for which the “Relative activity (%) L-amino acylase” value with L-amino acylase [2] (D-form of substrate) was 0%. In the series on D-amino acylase, the “Relative activity (%) D-amino acylase” value was 12%.
As for `CC(=O)N[C@@H](CCCNC(=N)N)C(=O)O` [N-acetyl-arginine], the “Relative activity (%) L-amino acylase” value with L-amino acylase [2] (L-form of substrate) is given as 0.04%.
`CC(=O)N[C@@H](CC(N)=O)C(=O)O` [N-acetyl-asparagine]: the “Relative activity (%) L-amino acylase” value in the series on L-amino acylase [2] (D-form of substrate) is 0%; in the series on L-amino acylase [2] (L-form of substrate) it was 3%. For the same molecule, in the series with D-amino acylase, the “Relative activity (%) D-amino acylase” value is 17%.
For the molecule `CC(=O)N[C@@H](CC(=O)O)C(=O)O` [N-acetyl-aspartic acid], the “Relative activity (%) L-amino acylase” value in the series on L-amino acylase [2] (L-form of substrate) is given as 1%.
With `CC(=O)N[C@@H](CCC(=O)O)C(=O)O` [N-acetyl-glutamic acid], the “Relative activity (%) L-amino acylase” value with L-amino acylase [2] (L-form of substrate) is 0.12%.
Take `CC(=O)N[C@@H](Cc1c[nH]cn1)C(=O)O` [N-acetyl-histidine]: the “Relative activity (%) L-amino acylase” value in the series with L-amino acylase [2] (L-form of substrate) stood at 0.08%.
Regarding `CC(=O)N[C@@H](CC(C)C)C(=O)O` [N-acetyl-leucine], the “Relative activity (%) L-amino acylase” value was found to be 2% with L-amino acylase [2] (D-form of substrate) and 10% in the series on L-amino acylase [2] (L-form of substrate). Moreover, in the series with D-amino acylase, the “Relative activity (%) D-amino acylase” value is on record as 60%.
The matching figures for `CSCC[C@H](NC(C)=O)C(=O)O` [N-acetyl-methionine]: 0.12%, 30% and 100%.
With `CC(=O)N[C@@H](Cc1ccccc1)C(=O)O` [N-acetyl-phenylalanine], the “Relative activity (%) L-amino acylase” value worked out at 0.9% in the series on L-amino acylase [2] (D-form of substrate) and 34% in the series on L-amino acylase [2] (L-form of substrate). Moreover, the “Relative activity (%) D-amino acylase” value with D-amino acylase was found to be 81%.
`CC(=O)N[C@@H](C(=O)O)c1ccccc1` [N-acetyl-phenylglycine]: in the series with L-amino acylase [2] (D-form of substrate), the “Relative activity (%) L-amino acylase” value amounted to 0%. In addition, the “Relative activity (%) D-amino acylase” value with D-amino acylase is recorded as 5%.
With `CC(=O)N[C@@H](Cc1c[nH]c2ccccc12)C(=O)O` [N-acetyl-tryptophan], the “Relative activity (%) L-amino acylase” value stood at 0.9% in the series on L-amino acylase [2] (D-form of substrate) and 11% in the series on L-amino acylase [2] (L-form of substrate). In addition, the “Relative activity (%) D-amino acylase” value in the series with D-amino acylase is reported as 33%.
With `CC(=O)N[C@@H](Cc1ccc(O)cc1)C(=O)O` [N-acetyl-tyrosine], the “Relative activity (%) L-amino acylase” value with L-amino acylase [2] (L-form of substrate) is 36%.
For `CC(=O)N[C@H](C(=O)O)C(C)C` [N-acetyl-valine], the “Relative activity (%) L-amino acylase” value in the series on L-amino acylase [2] (D-form of substrate) is listed as 7%; in the series on L-amino acylase [2] (L-form of substrate) it was 95%. In addition, in the series with D-amino acylase, the “Relative activity (%) D-amino acylase” value stood at 6%.
Turning to `CC(C)[C@H](NC(=O)CCl)C(=O)O` [N-chloroacetyl-L-valine], in the series with L-amino acylase [2] (in words), the “reactivity of hydrolysis by the enzyme” value is given as “especially high”.
`CC(C)[C@H](NC(=O)CCl)C(=O)O` [N-chloroacetyl-valine]: the “Relative activity (%) L-amino acylase” value stood at 0.8% in the series with L-amino acylase [2] (D-form of substrate) and 100% with L-amino acylase [2] (L-form of substrate). Moreover, in the series with D-amino acylase, the “Relative activity (%) D-amino acylase” value was found to be 66%.
On to `[Cl][Ni][Cl]` [NiCl2], for which the “relative activity of L-amino acylase (%)” value with L-amino acylase [1] (setting [4]) is on record as 95%.
On to `[Cl][Pb][Cl]` [PbCl2], for which the “influence of the ion on the enzyme” value with L-amino acylase [1] is on record as “inhibited”. Further, the “relative activity of L-amino acylase (%)” value was found to be 50% with L-amino acylase [1] (setting [4]), 71% with L-amino acylase [1] (setting [5]), 71% in the series with L-amino acylase [1] (setting [6]) and 97% in the series on L-amino acylase [1] (setting [7]).
Turning to `[Cl-].[Cl-].[Sr+2]` [SrCl2], the “relative activity of L-amino acylase (%)” value in the series on L-amino acylase [1] (setting [4]) was 80%.
Regarding `[Cl-].[Cl-].[Zn+2]` [ZnCl2], in the series with L-amino acylase [1], the “influence of the ion on the enzyme” value is on record as “inhibited”. For the same molecule, the “relative activity of L-amino acylase (%)” value in the series with L-amino acylase [1] (setting [4]) stood at 61%.
For the molecule `[Co+2]` [cobalt ions], in series [3], the enzyme activation was 2.5 fold.
